PMC7926793, “Synthesis and Biological Evaluation of 1-(Diarylmethyl)-1H-1,2,4-triazoles and 1-(Diarylmethyl)-1H-imidazoles as a Novel Class of Anti-Mitotic Agent for Activity in Breast Cancer” (Pharmaceuticals, 2021)
Several values for one entry are separate records, joined by “and”; a condition that tells them apart may be missing. Equal entries are not always repeated.

Tests used:
NCI-H552 = experiment: NCI 60 cell line screen (Non-Small Cell Lung Cancer); assay type: cell-based, human
RPMI-8226 = experiment: NCI 60 cell line screen (Leukemia); assay type: cell-based, human
CAKI-1 = experiment: NCI 60 cell line screen (Renal Cancer); assay type: cell-based, human
MCF-7 = experiment: NCI 60 cell line screen (Breast Cancer); assay type: cell-based, human
M14 = experiment: NCI 60 cell line screen (Melanoma); assay type: cell-based, human
OVCAR-3 = experiment: NCI 60 cell line screen (Ovarian Cancer); assay type: cell-based, human
MALME-3M = experiment: NCI 60 cell line screen (Melanoma); assay type: cell-based, human; conditions: single dose 10 µM
COLO 205 = experiment: NCI 60 cell line screen (Colon Cancer); assay type: cell-based, human
NCI 60 cell line panel = experiment: NCI 60 cell line screen, panel means; assay type: cell-based, human
HT29 = experiment: NCI 60 cell line screen (Colon Cancer); assay type: cell-based, human
786-0 = experiment: NCI 60 cell line screen (Renal Cancer); assay type: cell-based, human
PC-3 = experiment: NCI 60 cell line screen (Prostate cancer); assay type: cell-based, human
MOLT-4 = experiment: NCI 60 cell line screen (Leukemia); assay type: cell-based, human
BT-549 = experiment: NCI 60 cell line screen (Breast Cancer); assay type: cell-based, human
UACC-257 = experiment: NCI 60 cell line screen (Melanoma); assay type: cell-based, human
CYP19 (aromatase) = molecular target: T1, CYP19 (aromatase) (Homo sapiens, UniProt P11511); experiment: cytochrome P450 assay (DBF fluorescence)
T1 sequence (P11511 1-503): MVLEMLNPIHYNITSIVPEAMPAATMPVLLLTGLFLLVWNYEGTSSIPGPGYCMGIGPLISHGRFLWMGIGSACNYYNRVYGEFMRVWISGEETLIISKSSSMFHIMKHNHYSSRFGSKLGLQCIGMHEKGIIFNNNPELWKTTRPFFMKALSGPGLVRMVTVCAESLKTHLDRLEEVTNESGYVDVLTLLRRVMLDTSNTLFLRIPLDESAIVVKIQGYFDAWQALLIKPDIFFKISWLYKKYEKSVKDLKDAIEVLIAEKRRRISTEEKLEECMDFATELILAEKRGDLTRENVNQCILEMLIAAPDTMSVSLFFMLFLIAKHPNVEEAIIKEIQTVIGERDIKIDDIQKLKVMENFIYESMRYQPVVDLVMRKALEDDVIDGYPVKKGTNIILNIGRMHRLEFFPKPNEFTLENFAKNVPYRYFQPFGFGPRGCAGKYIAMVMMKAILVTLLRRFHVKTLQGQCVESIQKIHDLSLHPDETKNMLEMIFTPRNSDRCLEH

HCT-116 = experiment: NCI 60 cell line screen (Colon Cancer); assay type: cell-based, human
SF539 = experiment: NCI 60 cell line screen (CNS Cancer); assay type: cell-based, human
DU-145 = experiment: NCI 60 cell line screen (Prostate cancer); assay type: cell-based, human
K-562 = experiment: NCI 60 cell line screen (Leukemia); assay type: cell-based, human
SF295 = experiment: NCI 60 cell line screen (CNS Cancer); assay type: cell-based, human
A549/ATCC = experiment: NCI 60 cell line screen (Non-Small Cell Lung Cancer); assay type: cell-based, human
HL-60 (TB) = experiment: NCI 60 cell line screen (Leukemia); assay type: cell-based, human
HOP-92 = experiment: NCI 60 cell line screen (Non-Small Cell Lung Cancer); assay type: cell-based, human
IGROV1 = experiment: NCI 60 cell line screen (Ovarian Cancer); assay type: cell-based, human
MDA-MB-435 = experiment: NCI 60 cell line screen (Melanoma); assay type: cell-based, human
EKVX = experiment: NCI 60 cell line screen (Non-Small Cell Lung Cancer); assay type: cell-based, human
[1] = toxicity evaluation, alamarBlue assay; assay type: cell-based, human; conditions: human, MCF-10A cells
RXF 393 = experiment: NCI 60 cell line screen (Renal Cancer); assay type: cell-based, human
UO-31 = experiment: NCI 60 cell line screen (Renal Cancer); assay type: cell-based, human
MDA-MB-468 = experiment: NCI 60 cell line screen (Breast Cancer); assay type: cell-based, human
NCI-H332M = experiment: NCI 60 cell line screen (Non-Small Cell Lung Cancer); assay type: cell-based, human

COc1ccc(C(c2cc(OC)c(OC)c(OC)c2)n2cncn2)cc1O (stereo not drawn) [19e, 5-((1H-1,2,4-Triazol-1-yl)(3,4,5-Trimethoxyphenyl)methyl)-2-Methoxyphenol]
GI50 (NCI-H552; Homo sapiens, 60 cell, NCI-H552, NCI 5 dose assay): 395 nM | Growth percentage (NCI-H552; NCI-H552, single dose 10 µM): 12.78% | GI50 (RPMI-8226; Homo sapiens, RPMI-8226, NCI 5 dose assay): 452 nM | Growth percentage (RPMI-8226; RPMI-8226, single dose 10 µM): 20.71% | Growth percentage (CAKI-1; CAKI-1, single dose 10 µM): 40.43% | GI50 (CAKI-1; Homo sapiens, CAKI-1, NCI 5 dose assay): 567 nM | GI50 (MCF-7; Homo sapiens, MCF7, MCF-7, NCI 5 dose assay): 347 nM | Growth percentage (MCF-7; MCF-7, single dose 10 µM): 17.87% | GI50 (M14; Homo sapiens, M14, NCI 5 dose assay): 374 nM | Growth percentage (M14; M14, single dose 10 µM): -1.61% | GI50 (OVCAR-3; Homo sapiens, OVCAR-3, NCI 5 dose assay): 323 nM | Growth percentage (OVCAR-3; OVCAR-3, single dose 10 µM): 1.74% | Growth percentage (MALME-3M): 70.24% | Growth percentage (COLO 205; COLO 205, single dose 10 µM): -1.65% | GI50 (COLO 205; Homo sapiens, COLO 205, NCI 5 dose assay): 332 nM | Mean Growth percentage (NCI 60 cell line panel; 60 cell line panel, single dose 10 µM): 26.24% | MID TGI (total growth inhibition) (NCI 60 cell line panel; 60 cell lines): 53.7 µM | GI50 (NCI 60 cell line panel; Homo sapiens, 60 cell, NCI 5 dose assay, 60 cell lines, read-out: MG-MID (mean of GI50 values over all cell lines)): 243 nM | Growth percentage (HT29; HT29, single dose 10 µM): 5.30% | GI50 (HT29; Homo sapiens, HT-29, HT29, NCI 5 dose assay): 330 nM | Growth percentage (786-0; 786-0, single dose 10 µM): 28.10% | GI50 (786-0; Homo sapiens, 786-0, NCI 5 dose assay): 475 nM | GI50 (PC-3; Homo sapiens, PC-3, NCI 5 dose assay): 431 nM | Growth percentage (PC-3; PC-3, single dose 10 µM): 21.20% | GI50 (MOLT-4; Homo sapiens, MOLT-4, NCI 5 dose assay): 510 nM | Growth percentage (MOLT-4; MOLT-4, single dose 10 µM): 16.7% | Growth percentage (BT-549; BT-549, single dose 10 µM): 11.30% | GI50 (BT-549; Homo sapiens, BT-549, NCI 5 dose assay): 618 nM | GI50 (UACC-257; Homo sapiens, UACC-257, NCI 5 dose assay): > 100 µM | Growth percentage (UACC-257; UACC-257, single dose 10 µM): 44.45% | IC50 (CYP19 (aromatase); IC50 CYP19): 29 µM and 29.6 µM | inhibition at 20 µg/mL (CYP19 (aromatase); read-out: % Inhibition at 20 µg/mL CYP19): 85.3% | inhibition at 20 µM (CYP19 (aromatase); read-out: inhibition of CYP19): > 85% | Growth percentage (HCT-116; HCT-116, single dose 10 µM): 7.25% | GI50 (HCT-116; Homo sapiens, HCT-116, NCI 5 dose assay): 448 nM | GI50 (SF539; Homo sapiens, SF-539, SF539, NCI 5 dose assay): 300 nM | Growth percentage (SF539; SF539, single dose 10 µM): 9.34% | Growth percentage (DU-145; DU-145, single dose 10 µM): 19.64% | GI50 (DU-145; Homo sapiens, DU-145, NCI 5 dose assay): 530 nM | GI50 (K-562; Homo sapiens, K562, K-562, NCI 5 dose assay): 427 nM | Growth percentage (K-562; K-562, single dose 10 µM): 8.34% | GI50 (SF295; Homo sapiens, SF-295, SF295, NCI 5 dose assay): 325 nM | Growth percentage (SF295; SF295, single dose 10 µM): 2.56% | GI50 (A549/ATCC; Homo sapiens, NCI 5 dose assay): 969 nM | Growth percentage (A549/ATCC; single dose 10 µM): 18.6% | GI50 (HL-60 (TB); Homo sapiens, NCI 5 dose assay): 261 nM | Growth percentage (HL-60 (TB); single dose 10 µM): -32.53% | Growth percentage (HOP-92; HOP-92, single dose 10 µM): 43.92% | GI50 (HOP-92; Homo sapiens, HOP-92, NCI 5 dose assay): 9.69 µM | GI50 (IGROV1; Homo sapiens, IGROV-1, IGROV1, NCI 5 dose assay): 959 nM | Growth percentage (IGROV1; IGROV1, single dose 10 µM): 49.22% | GI50 (MDA-MB-435; Homo sapiens, MDA-MB-435, NCI 5 dose assay): 181 nM | Growth percentage (MDA-MB-435; MDA-MB-435, single dose 10 µM): -46.16% | GI50 (EKVX; Homo sapiens, NCI 5 dose assay): 2240 nM | Growth percentage (EKVX; single dose 10 µM): 39.79% | viability at 48 h, 0.4 µM ([1]; 0.4 μM, 48 h): ~100% | viability at 48 h, 0.5 µM ([1]; 0.5 μM, 48 h): ~100% | viability at 24 h, 1 µM ([1]; 1 μM, 24 h, read-out: cell viability): 99% | viability at 48 h, 1 µM ([1]; 1 μM, 48 h, read-out: percentage of viable cells): > 94% | viability at 72 h, 1 µM ([1]; 1 μM, 72 h, read-out: percentage of viable cells): > 80% | viability at 48 h, 10 µM ([1]; 10 μM, 48 h, read-out: percentage of viable cells): ~30% | GI50 (RXF 393; Homo sapiens, RXF 393, NCI 5 dose assay): 321 nM | Growth percentage (RXF 393; RXF 393, single dose 10 µM): -13.85% | GI50 (UO-31; Homo sapiens, UO-31, NCI 5 dose assay): 903 nM | Growth percentage (UO-31; UO-31, single dose 10 µM): 57.96% | GI50 (MDA-MB-468; Homo sapiens, MDA-MB-468, NCI 5 dose assay): 371 nM | Growth percentage (MDA-MB-468; MDA-MB-468, single dose 10 µM): 7.88% | GI50 (NCI-H332M; Homo sapiens, NCI 5 dose assay): 696 nM | Growth percentage (NCI-H332M; single dose 10 µM): 51.45%
